Experimental findings from patent publication US8431564B2 (Merck Sharp & Dohme B.V., priority 2009, dated 2013) are described below.

The target in the test is T1, human FSH receptor (Homo sapiens, UniProt P23945).
T1 construct: expressed in transfected cells; host or cells: CHO (Chinese Hamster Ovary) cells, stably transfected, cotransfected with CRE-luciferase reporter
T1 sequence (P23945 18-695): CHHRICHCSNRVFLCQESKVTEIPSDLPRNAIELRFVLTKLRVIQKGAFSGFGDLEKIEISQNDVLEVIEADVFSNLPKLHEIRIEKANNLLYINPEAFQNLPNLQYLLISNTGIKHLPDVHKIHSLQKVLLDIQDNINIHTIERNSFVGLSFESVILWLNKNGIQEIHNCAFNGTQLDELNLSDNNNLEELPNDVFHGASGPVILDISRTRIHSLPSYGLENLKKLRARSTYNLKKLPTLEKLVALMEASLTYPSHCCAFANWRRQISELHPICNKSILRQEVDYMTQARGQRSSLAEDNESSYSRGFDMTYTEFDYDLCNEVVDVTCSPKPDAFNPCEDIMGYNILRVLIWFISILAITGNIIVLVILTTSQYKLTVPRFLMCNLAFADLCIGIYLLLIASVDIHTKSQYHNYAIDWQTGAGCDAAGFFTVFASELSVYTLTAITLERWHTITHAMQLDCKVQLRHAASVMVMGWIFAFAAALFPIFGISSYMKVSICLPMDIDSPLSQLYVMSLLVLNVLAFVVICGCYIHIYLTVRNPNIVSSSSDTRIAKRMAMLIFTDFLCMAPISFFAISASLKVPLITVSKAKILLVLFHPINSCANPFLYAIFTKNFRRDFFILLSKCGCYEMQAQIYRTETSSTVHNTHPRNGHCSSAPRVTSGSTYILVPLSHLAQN
The test is described as follows: Agonistic activity at the human FSH receptor expressed in CHO cells (CRE-luciferase reporter). Type of test: cell-based. The note with it: CHO cells stably transfected with human FSH receptor and CRE/luciferase reporter; 4 hours incubation; pEC50 is -log EC50; read-out: hFSHRago (CHO luc) pEC50 (converted). An excerpt:
The term EC50 means the concentration of the test compound that elicits half-maximal (50%) stimulation compared to the compound's maximally attainable effect. pEC50 is the negative log of EC50. The values can be determined e.g. in a cell line transfected with a FSH receptor gene and cotransfected with a cAMP responsive element/promoter directing the expression of a reporter gene. For the determination a software program such as MathIQ (version 2.0, ID Business Solutions Limited) can be used.
Agonistic activity of the compounds at the human FSH receptor was determined in Chinese Hamster Ovary (CHO) cells stably transfected with the human FSH receptor and cotransfected with a cAMP responsive element (CRE)/promotor directing the expression of a firefly luciferase reporter gene. Binding of the compounds to the Gs protein-coupled FSH receptor will result in an increase of cAMP, which in turn will induce an increased transactivation of the luciferase reporter. Cells (7,500 cells/well of a 384 well plate) were incubated in Dulbecco' minimal essential F12 modified medium (Invitrogen), supplemented with 1 μg/ml bovine insulin, 5 μg/ml human apo-transferrin, 80 U/ml penicillin G and 80 μg/ml streptomycin with the test compounds (concentration between 0.0316 nM and 10.0 μM) in duplicate in a humidified atmosphere (95%) at 5-7% CO2 and 37° C. The final concentration of DMSO was 1%. After 4 hours of incubation, plates were allowed to adjust to room temperature for 1 hour. Then, Luclite (PerkinElmer) solution was added to the wells and cells were allowed to lyse for at least 1 hour at room temperature. Subsequently, luciferase activity was measured in a luminescence counter. The signal is expressed as counts per second (cps). The EC50 (concentration of the test compound that elicits half-maximal (50%) luciferase stimulation compared to the compound's maximally attainable effect) and efficacy values (maximal effect of the test compound as percentage of the maximal effect of recombinant human FSH) of the compounds were determined using the software program MathIQ (version 2.0, ID Business Solutions Limited). pEC50 data (pEC50 is −log EC50) are indicated at the synthesis examples.
As for `COc1cc2c(cc1OC(C)C)-c1c(-c3cccs3)c3c(n1CC2)C(=O)N(C(C)C)CCN(C(C)=O)C3` [Compound 14f, 12-acetyl-9-isopropyl-3-methoxy-2-isopropoxy-14-(2-thienyl)-5,6,10,11,12,13-hexahydro[1,4]diazocino[6′,7′:4,5]pyrrolo[2,1-a]isoquinolin-8(9H)-one], the EC50 is 35.5 nM.

In the case of `COC(=O)[C@@H]1CCCN1C(=O)c1cc2c(cc1OC)CCn1c3c(c(-c4cccs4)c1-2)CCCCN(C(C)(C)C)C3=O` [Compound 26c2, (S)-9-tert-butyl-3-methoxy-14-(thiophen-2-yl)-5,6,10,11,12,13-hexahydroazocino[4′,3′:4,5]pyrrolo[2,1-a]isoquinolin-8(9H)-one-2-carbonyl(1-pyrrolidinyl-2-carboxylate) methyl ester], the EC50 is 37.2 nM.

In the case of `COc1cc2c(cc1-c1c(C)nn(C)c1C)-c1c(-c3cccs3)c3c(n1CC2)C(=O)N(C(C)C)CCN(C(=O)C(C)C)C3` [Compound 10s, 12-isobutyryl-9-isopropyl-3-methoxy-14-(2-thienyl)-2-(1,3,5-trimethyl-1H-pyrazol-4-yl)-5,6,10,11,12,13-hexahydro[1,4]diazocino[6′,7′:4,5]pyrrolo[2,1-a]isoquinolin-8(9H)-one], the EC50 is 5010 nM.

With `COc1cc2c(cc1C(=O)N1CCOCC1)-c1c(-c3cccs3)c3c(n1CC2)C(=O)N(C(C)(C)C)CCCC3` [Compound 26c4, 9-tert-butyl-3-methoxy-2-(4-morpholinylcarbonyl)-14-(thiophen-2-yl)-5,6,10,11,12,13-hexahydroazocino[4′,3′:4,5]pyrrolo[2,1-a]isoquinolin-8(9H)-one], the EC50 is 9.77 nM.

Take `COc1cc2c(cc1C#N)-c1c(-c3cccs3)c3c(n1CC2)C(=O)N(C(C)(C)C)CCCC3` [Compound 20h, 9-tert-butyl-14-(thien-2-yl)-3-methoxy-5,6,10,11,12,13-hexahydroazocino[4′,3′:4,5]pyrrolo[2,1-a]isoquinolin-8(9H)-one-2-carbonitrile]: the EC50 is 1.78 nM.

For the molecule `COc1cc2c(cc1C(=O)N1CCC[C@H]1CO)-c1c(-c3cccs3)c3c(n1CC2)C(=O)N(C(C)(C)C)CCCC3` [Compound 26c3, (S)-9-tert-butyl-3-methoxy-2-(2-hydroxymethyl-1-pyrrolidinylcarbonyl)-14-(thiophen-2-yl)-5,6,10,11,12,13-hexahydroazocino[4′,3′:4,5]pyrrolo[2,1-a]isoquinolin-8(9H)-one], the EC50 was 27.5 nM.

For `COC(=O)c1cc2c(cc1OC)CCn1c3c(c(-c4cccs4)c1-2)CCCCN(C(C)(C)C)C3=O` [Compound 26a, methyl 9-tert-butyl-3-methoxy-14-(thiophen-2-yl)-5,6,10,11,12,13-hexahydroazocino[4′,3′:4,5]pyrrolo[2,1-a]isoquinolin-8(9H)-one-2-carboxylate], the EC50 was 1 nM.

For the molecule `COc1cc2c(cc1-c1cccnc1)-c1c(-c3cccs3)c3c(n1CC2)C(=O)N(C(C)(C)C)CCC(C)(C)C3` [Compound 24k, 9-tert-butyl-12,12-dimethyl-3-methoxy-2-pyridin-3-yl-14-(2-thienyl)-5,6,10,11,12,13-hexahydroazocino[4′,3′:4,5]pyrrolo[2,1-a]isoquinolin-8(9H)-one], the EC50 is 389 nM.

With `COc1cc2c(cc1-c1cccnc1)-c1c(C3=CCOCC3)c3c(n1CC2)C(=O)N(C(C)(C)C)CCCC3` [Compound 25c, 9-tert-butyl-2-(3-pyridyl)-14-(3,6-dihydro-2H-pyran-4-yl)-3-methoxy-5,6,10,11,12,13-hexahydroazocino[4′,3′:4,5]pyrrolo[2,1-a]isoquinolin-8(9H)-one], the EC50 was 6.31 nM.

`CCS(=O)(=O)c1cc2c(cc1OC)CCn1c3c(c(-c4cncs4)c1-2)CCCCN(C(C)(C)C)C3=O` [Compound 23g, 9-tert-butyl-14-(thiazol-5-yl)-2-ethylsulfonyl-3-methoxy-5,6,10,11,12,13-hexahydroazocino[4′,3′:4,5]pyrrolo[2,1-a]isoquinolin-8(9H)-one]: the EC50 was 10.7 nM.

For `COc1cc2c(cc1-c1cccnc1)-c1c(-c3cccs3)c3c(n1CC2)C(=O)N(C)C(C)(C)CC3` [Compound 12l, 9-methyl-2-pyidin3-yl-3-methoxy-10,10-dimethyl-13-(2-thienyl)-5,6,9,10,11,12-hexahydro-8H-azepino[4′,3′:4,5]pyrrolo[2,1-a]isoquinolin-8-one], the EC50 was 12 nM.

For the molecule `COc1cc2c(cc1-n1cc(CCO)nn1)-c1c(-c3cccs3)c3c(n1CC2)C(=O)N(C(C)(C)C)CCCC3` [Compound 20d, 9-tert-butyl-14-(thien-2-yl)-2-(4-(2-hydroxyethyl)-1H-1,2,3-triazol-1-yl)-3-methoxy-5,6,10,11,12,13-hexahydroazocino[4′,3′:4,5]pyrrolo[2,1-a]isoquinolin-8(9H)-one], the EC50 is 0.589 nM.

As for `COc1cc2c(cc1C(=O)NCCO)-c1c(-c3cccs3)c3c(n1CC2)C(=O)N(C(C)(C)C)CCCC3` [Compound 26c7, 9-tert-butyl-2-(2-hydroxyethylaminocarbonyl)-3-methoxy-14-(thiophen-2-yl)-5,6,10,11,12,13-hexahydroazocino[4′,3′:4,5]pyrrolo[2,1-a]isoquinolin-8(9H)-one], the EC50 is 0.427 nM.

Consider `COc1cc2c(cc1C(=O)NCCC(O)CO)-c1c(-c3cccs3)c3c(n1CC2)C(=O)N(C(C)(C)C)CCCC3` (centres unmarked) [Compound 26c10, 9-tert-butyl-2-(3,4-dihydroxybutylaminocarbonyl)-3-methoxy-14-(thiophen-2-yl)-5,6,10,11,12,13-hexahydroazocino[4′,3′:4,5]pyrrolo[2,1-a]isoquinolin-8(9H)-one], for which the EC50 was 1.95 nM.

With `CC[S+]([O-])c1cc2c(cc1OC)CCn1c3c(c(Br)c1-2)CCCCN(C(C)(C)C)C3=O` (centres unmarked) [Compound 23d, 9-tert-butyl-14-bromo-2-ethylsulfinyl-3-methoxy-5,6,10,11,12,13-hexahydroazocino[4′,3′:4,5]pyrrolo[2,1-a]isoquinolin-8(9H)-one], the EC50 is 245 nM.

Regarding `COc1cc2c(cc1OC(C)C)-c1c(-c3cccs3)c3c(n1CC2)C(=O)N(C(C)(C)C)CCC3` [Compound 6e], the EC50 was 11 nM.

With `COc1cc2c(cc1-c1c(C)nn(C)c1C)-c1c(-c3cccs3)c3c(n1CC2)C(=O)N(C(C)C)CCN(C(C)=O)C3` [Compound 10r, 12-acetyl-9-isopropyl-3-methoxy-14-(2-thienyl)-2-(1,3,5-trimethyl-1H-pyrazol-4-yl)-5,6,10,11,12,13-hexahydro[1,4]diazocino[6′,7′:4,5]pyrrolo[2,1-a]isoquinolin-8(9H)-one], the EC50 is 162 nM.

For `COc1cc2c(cc1-c1cccnc1)-c1c(-c3cncs3)c3c(n1CC2)C(=O)N(C(C)(C)C)CCCCC3` [Compound 16n, 2-pyridin-3-yl-9-tert-butyl-3-methoxy-15-(1,3-thiazol-5-yl)-5,6,9,10,11,12,13,14-octahydro-8H-azonino[4′,3′:4,5]pyrrolo[2,1-a]isoquinolin-8-one], the EC50 is 16.2 nM.

`COc1cc2c(cc1-c1cccnc1)-c1c(C3=CCSCC3)c3c(n1CC2)C(=O)N(C(C)(C)C)CCCC3` [Compound 25d, 9-tert-butyl-2-(3-pyridyl)-14-(3,6-dihydro-2H-thiopyran-4-yl)-3-methoxy-5,6,10,11,12,13-hexahydroazocino[4′,3′:4,5]pyrrolo[2,1-a]isoquinolin-8(9H)-one]: the EC50 was 10.7 nM.

Take `COc1cc2c(cc1-c1cccnc1)-c1c(-c3cccs3)c3c(n1CC2)C(=O)N(C(C)C)CCN(C(C)=O)C3` [Compound 10p, 12-acetyl-9-isopropyl-3-methoxy-2-pyridin-3-yl-14-(2-thienyl)-5,6,10,11,12,13-hexahydro[1,4]diazocino[6′,7′:4,5]pyrrolo[2,1-a]isoquinolin-8(9H)-one]: the EC50 was 5.25 nM.
